This note sets out measurements from patent publication US4555572A, “Pyrazolo[3,4,5-kl]acridine compositions and methods for their production and use” (Warner-Lambert Company, priority 1984, dated 1985).

Assay [1] relates to lymphocytic leukemia P388. Put plainly: in vivo lymphocytic leukemia P388 test. Set-up: species or system CD2 F1 mice. The settings on record: Mus musculus, P388, ip, 120 h, intraperitoneally once daily for five days, read-out: P388 in vivo T/C × 100. An outline of the steps: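 CD2 F1 mice (6–7 per group) inoculated i.p. with P388 ascitic cells; compound dosed i.p. once daily for 5 consecutive days after inoculation. Survival followed 30 days; efficacy as treated/control survival time ×100 (≥125 criterion); "toxic" if all animals died within 4 days of first dose.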

The test system of assay [2] is L1210 cells. Kind of assay: PDC test, L1210 cell growth. The assay is classed as cell-based, murine. As to conditions: Mus musculus, 72 h; L1210 cells, three days; read-out: PDC ID50. As for the experimental part:
(c) Another test protocol is the PDC test. L1210 cells, a murine leukemia cell line, were grown in RPMI 1640 supplemented with 10% fetal bovine serum and genamicin (50 μg/ml). Drug dilutions were prepared in the appropriate solvent and 20 μl of each dilution were added to 24-well Linbro tissue culture plates followed by the addition of 2.0 ml of cell suspension containing 3×10^4 cells per ml. Solvent and medium controls were included in each test. After incubation at 37° C. for three days in 5% CO2 in air, the contents of each well were removed and the cells counted in a ZBI Coulter counter. Per cent growth was calculated relative to the controls and the levels of drug activity were expressed as ID50 in terms of molarity (M).

Assay [3] deals with HCT-8 cells. Kind of assay: in vitro proliferating human colon adenocarcinoma (HCA) cell screen, HCT-8. As to conditions: HCT-8 cells, 60 to 65 hours, ED50, read-out: HCA ED50 Avg. Format: cell-based. An outline of the steps: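 HCT-8 colon adenocarcinoma cells seeded in RPMI 1640 + 10% FCS, grown 48 h, then exposed to compounds for 60-65 h at 37 °C, 5% CO2. Nuclei counted by Coulter counter after lysis; ID50 is the molar concentration giving 50% growth inhibition.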

The test system of assay [4] is Alcaligenes viscolactis. Put plainly: in vitro antibacterial (ABMF) microdilution susceptibility test. Format: cell-based. As to conditions: Mueller-Hinton broth, 37° C., 16-24 hours, read-out: ABMF Test M.I.C. A. visc. In short, it runs like this:
(§1)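 Standard microdilution susceptibility in Mueller-Hinton broth: inoculated wells contain test compound at 1000, 333, 111, 37, 12, 4, 1.4 and 0.46 μg/mL.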
For orientation: Dilution methods test growth across graded concentrations, often in twofold steps.

The subject of assay [5] is Streptococcus pneumoniae. The assay is described as above. The assay is classed as cell-based. The settings on record: Mueller-Hinton broth, 37° C., 16-24 hours, read-out: ABMF Test M.I.C. S. pneu. An outline of the steps: as §1
Assay [6] relates to Bacillus cereus. Described as above. Format: cell-based. As to conditions: Mueller-Hinton broth, 37° C., 16-24 hours, read-out: ABMF Test M.I.C. B. cere. In short, it runs like this:
as §1

Assay [7] deals with Branhamella catarrhalis. The assay is described as above. The assay is classed as cell-based. As to conditions: Moraxella catarrhalis; Mueller-Hinton broth, 37° C., 16-24 hours; read-out: ABMF Test M.I.C. B. cata. An outline of the steps: as §1
The test system of assay [8] is Escherichia coli. The assay is described as above. Format: cell-based. The settings on record: Mueller-Hinton broth, 37° C., 16-24 hours, read-out: ABMF Test M.I.C. E. coli. An outline of the steps:
as §1

The subject of assay [9] is Streptococcus faecalis. Put plainly: in vitro antibacterial/antifungal (ABF) agar-disk diffusion assay. The assay is classed as cell-based. As to conditions: Enterococcus faecalis, read-out: ABF zone diameter S. faecalis. Here is the method:
(§2) (b) Another test protocol is the in vitro antibacterial/antifungal (ABF) test. Compounds are tested for antimicrobial activity in an agar-disk diffusion assay, a standard microbiological technique for testing antibiotics. After incubation of each culture with a test compound, a zone of inhibition is determined. The zone diameter (mm) of active compounds ranges from a minimum of 14 mm to as high as 60 mm, with a greater diameter reflecting higher activity. For convenience, values are reported for (Alcaligenes viscolactis, Sarcina lutea, Branhamella catarrhalis, Bacillus subtilis, and Streptococcus faecalis.

Assay [10] deals with Bacillus subtilis. Described as above. Format: cell-based. Here is the method:
as §2

Assay [11] has as its system Sarcina lutea. Described as above. The assay is classed as cell-based. The settings on record: Micrococcus luteus, read-out: ABF zone diameter S. lutea. Here is the method: as §2
Assay [12] relates to Branhamella catarrhalis. The assay is described as above. Format: cell-based. The settings on record: Moraxella catarrhalis; dose .1 mg/ml; read-out: ABF zone diameter B. catarrh. As for the experimental part: as §2

The structures appear in SMILES notation. Counter-ions that a name gives are not always drawn. Where only a bound is given, the exact number is not on record here.

For `CCN(CC)CCn1nc2c3c(c([N+](=O)[O-])ccc31)Nc1ccc(N(C)C)cc1-2.CS(=O)(=O)O.CS(=O)(=O)O` [Example 33, 9-(Dimethylamino)-N,N-diethyl-5-nitropyrazolo[3,4,5-kl]acridine-2(6H)-ethanamine, methanesulfonate (1:2)], the response vs control in vivo at 12.5 mg/kg in assay [1] came out at 127%. For the same compound, the response vs control in vivo at 25 mg/kg in assay [1] turned out to be 158%. The IC50 in assay [2] turned out to be 900 nM; in assay [3], 320 nM. Also, the MIC in assay [4] stood at 1.4 µg/mL; in assay [5], 1.4 µg/mL; in assay [6], 37 µg/mL; in assay [7], 12.3 µg/mL; in assay [8], 37 µg/mL.
Regarding `CCOc1ccc2c(c1)-c1nn(CCNCCO)c3ccc([N+](=O)[O-])c(c13)N2` [Example 40, 2-[[2-(9-Ethoxy-5-nitropyrazolo[3,4,5-kl]acridin-2(6H)-yl)ethyl]amino]ethanol, monohydrochloride, hydrate (4:1)], the response vs control in vivo at 6.25 mg/kg in assay [1] was found to be 134%. In addition, the response vs control in vivo at 12.5 mg/kg in [1] worked out at 156%. In addition, the response vs control in vivo at 25 mg/kg in [1] is 169%. Moreover, in assay [1], the response vs control in vivo at 50 mg/kg is 195%. Moreover, the IC50 was 320 nM in assay [2] and 82 nM in assay [3]. For the same compound, the MIC was under 0.46 µg/mL in assay [4]; under 0.46 µg/mL in assay [5]; under 0.46 µg/mL in assay [6]; 4.1 µg/mL in assay [7]; 4.1 µg/mL in assay [8].
In the case of `CCN(CC)CCn1nc2ccc([N+](=O)[O-])c3c2c1-c1cc(OC)ccc1N3.CS(=O)(=O)O` [Example 9, N,N-Diethyl-9-methoxy-5-nitropyrazolo[3,4,5-kl]acridine-1(6H)-ethanamine, monomethanesulfonate], in assay [1], the response vs control in vivo at 12.5 mg/kg was 120%, the response vs control in vivo at 25 mg/kg is 135% and the response vs control in vivo at 50 mg/kg was determined as 167%. Moreover, the zone of inhibition at 500 µg/mL in assay [9] (dose .5 mg/ml) amounted to 18 mm. The “ABF zone diameter B. subtil.” value in [10] (dose not given) was 15 mm. For the same compound, in assay [11] (dose .1 mg/ml), the zone of inhibition at 100 µg/mL was 14 mm. Further, in [12], the zone of inhibition at 100 µg/mL stood at 16 mm.
In the case of `CCOc1ccc2c(c1)-c1nn(CCN(C)C)c3ccc([N+](=O)[O-])c(c13)N2` [Example 37, 9-Ethoxy-N,N-dimethyl-5-nitropyrazolo[3,4,5-kl]acridine-2(6H)ethanamine, methanesulfonate (4:5)], in [1] (3.12 mg/kg), the response vs control in vivo at 3.12 mg/kg came to 150%. In addition, in [1], the response vs control in vivo at 6.25 mg/kg is 191%. In assay [1], the response vs control in vivo at 12.5 mg/kg came to 234%. Further, the IC50 in assay [2] is 270 nM; in assay [3], 25 nM. Besides, the MIC in assay [4] was under 0.46 µg/mL; in assay [5], under 0.46 µg/mL; in assay [6], 4.1 µg/mL; in assay [7], 1.4 µg/mL; in assay [8], under 0.46 µg/mL.
As to `COc1ccc2c(c1)-c1nn(CCNCCO)c3ccc([N+](=O)[O-])c(c13)N2` [Example 7, 2-[[2-(9-Methoxy-5-nitropyrazolo[3,4,5-kl]-acridin-2(6H)yl)ethyl]aminoethanol, monohydrochloride], in assay [1], the response vs control in vivo at 6.25 mg/kg came out at 138%, the response vs control in vivo at 12.5 mg/kg worked out at 138%, the response vs control in vivo at 25 mg/kg is 149% and the response vs control in vivo at 50 mg/kg is 163%. The zone of inhibition at 1000 µg/mL in assay [9] (dose 1 mg/ml) turned out to be 14 mm. Besides, the zone of inhibition at 500 µg/mL in assay [10] (Bacillus subtilis, dose .5 mg/ml, read-out: ABF zone diameter B. subtil.) came out at 18 mm. Moreover, in assay [11] (dose 1 mg/ml), the zone of inhibition at 1000 µg/mL was determined as 14 mm. The zone of inhibition at 100 µg/mL in [12] was 14 mm.
